Key:
FXIIIa = target: T1, FXIIIa (Homo sapiens, UniProt P00488); experiment: bisubstrate, fluorescence-based trans-glutamination assay; assay type: biochemical; conditions: for HS (Hill slope), FXIIIa inhibition: logistic fit eq 1; for IC50: pH 7.4, 37 °C, substrates dansylcadaverine and N,N-dimethylcasein
T1 construct: purchased Haematologic Technologies; host or cells: human plasma
T1 sequence (P00488 39-732 limits assumed): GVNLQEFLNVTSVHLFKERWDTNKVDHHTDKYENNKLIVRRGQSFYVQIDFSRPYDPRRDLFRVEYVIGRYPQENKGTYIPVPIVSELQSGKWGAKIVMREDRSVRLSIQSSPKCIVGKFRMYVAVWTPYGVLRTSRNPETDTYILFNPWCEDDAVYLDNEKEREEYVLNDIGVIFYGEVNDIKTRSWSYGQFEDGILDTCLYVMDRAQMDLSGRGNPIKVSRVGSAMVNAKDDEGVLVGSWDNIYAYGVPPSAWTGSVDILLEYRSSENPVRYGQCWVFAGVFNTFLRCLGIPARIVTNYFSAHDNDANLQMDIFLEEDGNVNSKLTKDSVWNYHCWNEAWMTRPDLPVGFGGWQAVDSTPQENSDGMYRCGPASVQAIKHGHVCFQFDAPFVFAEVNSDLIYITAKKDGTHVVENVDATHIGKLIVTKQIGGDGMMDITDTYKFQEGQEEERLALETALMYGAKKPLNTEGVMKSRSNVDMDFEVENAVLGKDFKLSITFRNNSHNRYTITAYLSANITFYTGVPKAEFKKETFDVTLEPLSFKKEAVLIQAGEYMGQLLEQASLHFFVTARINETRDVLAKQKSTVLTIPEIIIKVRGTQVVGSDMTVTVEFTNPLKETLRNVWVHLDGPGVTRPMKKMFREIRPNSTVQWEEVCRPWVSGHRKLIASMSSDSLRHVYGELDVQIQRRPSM
Description: A series of 27 sulfonated molecules (Figure 3) was screened for inhibition of human FXIIIa using a modified bisubstrate, fluorescence-based trans-glutamination assay, as described earlier.[36],[49] Dansylcadaverine and N,N-dimethylcasein were used as two substrates, which upon FXIIIa-dependence conjugation show a marked increase in fluorescence at 550 nm (λEX = 360 nm). The sulfonated molecules were structurally diverse given their number of anionic groups (mono- (inhibitors 24–27) to octa- (inhibitor 9)), number of building blocks (monomeric (molecules 26–29) to […] (inhibitor 14)), and the nature of the building block of oligomeric derivatives (benzamide derivatives (inhibitors 3–10, 24, and 25), triazine derivatives (inhibitors 11–14), and azo-naphthalene derivatives (molecules 15–22), and ureido-naphthalene derivative (23)) (Figure 3).
To measure the potency and efficacy of these inhibitors, the dose-dependence of FXIIIa inhibition was evaluated using logistic eq 1 (Table 1). The potency of inhibition refers to the IC50 (x-axis), whereas the efficacy refers to the net change in residual FXIIIa activity (ΔY%) (y-axis). Iodoacetamide, a nonselective inhibitor of thiol-containing enzymes, was used as a positive control.
To evaluate the effect of sulfonated molecules on human FXIIIa, a bisubstrate, fluorescence-based trans-glutamination assay was performed as we reported previously.[36],[49] Generally, 1 μL of the sulfonated molecule was diluted with 87 μL of pH 7.4 buffer (50 mM Tris-HCl, 1 mM CaCl2, 100 mM NaCl, and 2 mg/mL N,N-dimethylcasein) and 5 μL dithiothreitol (20 mM) at 37 °C followed by the addition of 2 μL of human FXIIIa (0.3 μM) and incubation for 10 min. The activity of FXIIIa was monitored following the addition of 5 μL of dansylcadaverine (2 mM) by measuring the initial rate of increase in fluorescence emission (λEx. = 360 nm and λEm. = 550 nm). Relative residual FXIIIa activity at each concentration of the inhibitor was calculated from the ratio of FXIIIa activity in the presence and absence of the inhibitor. Logistic eq 1 was used to fit the concentration dependence of residual FXIIIa activity to obtain the potency (IC50) and efficacy (ΔY%) of inhibition. [drawing 1] 1
This equation defines Y as the ratio of residual FXIIIa activity with the inhibitor present compared to its absence. YM represents the maximum possible value of residual FXIIIa activity, while YO denotes the minimum possible value. IC50 signifies the concentration of the inhibitor causing 50% enzyme activity inhibition, and HS represents the Hill slope. Determination of YM, YO, IC50, and HS values is achieved through nonlinear curve fitting of the experimental data.

[1] = tested on: MCF-7 human breast carcinoma cells; experiment: cell viability, Alamar Blue, MCF-7; assay type: cell-based; conditions: MCF-7, 10 μM, 3 days
Experimental: (§1) To further evaluate the selectivity as well as the potential toxicity of inhibitors, we studied their effects on the clotting times of normal human plasma as well as their effects on the proliferation of three cell lines. On the one hand, the inhibitors’ effects on activated partial thromboplastin time (APTT) and prothrombin time (PT) were measured, as described earlier under in vitro conditions,[52]−[55] using variable concentrations (0–2000 μM) (Table 3). […] On the other hand, the antiproliferative properties of inhibitors 13 and 16 were evaluated in three cell lines of breast (MCF-7), intestine (CaCo-2), and kidney (HEK-293) (Figure 5B), as described earlier.[56] […] Overall, inhibitor 16 can be considered for further development as a potent, selective, and nontoxic inhibitor of human FXIIIa.
(§2) HEK-293 human embryonic kidney cells,[66] CaCo-2 heterogeneous human epithelial colorectal adenocarcinoma cells,[67] and MCF-7 human breast carcinoma cells[68] were treated as reported previously.[69],[70] […] Subsequently, fluorescence readings (λEx. = 560 nm and λEm. = 590 nm) were taken using the Synergy H1 multiplate reader (BioTek) to quantify cell numbers both in the absence (utilizing distilled water as a control) and the presence of inhibitors 13 and 16 (at a concentration of 10 μM; incubated for 3 days). […]

[2] = tested on: HEK-293 human embryonic kidney cells; experiment: cell viability, Alamar Blue, HEK-293; assay type: cell-based; conditions: HEK-293, 10 μM, 3 days
Experimental: as §1, §2

| SMILES | HS (Hill slope), FXIIIa inhibition (FXIIIa) | IC50 (FXIIIa) [µM] | effect on proliferation / cell viability [1] | effect on proliferation / cell viability [2] |
| --- | --- | --- | --- | --- |
| Nc1c(/N=N/c2ccc(S(=O)(=O)CCOS(=O)(=O)O)cc2)c(S(=O)(=O)O)cc2cc(S(=O)(=O)O)c(/N=N/c3ccc(S(=O)(=O)CCOS(=O)(=O)O)cc3)c(O)c12 [compound 16] | 0.8 ± 0.1 | 2.4 ± 0.5 | does not significantly affect the proliferation | does not significantly affect the proliferation |
| Nc1c(S(=O)(=O)O)cc(Nc2ccc(Nc3nc(Cl)nc(Nc4ccccc4S(=O)(=O)O)n3)c(S(=O)(=O)O)c2)c2c1C(=O)c1ccccc1C2=O [compound 13] | 0.7 ± 0.03 | 3.1 ± 0.3 | does not significantly affect the proliferation | does not significantly affect the proliferation |
| Nc1c(/N=N/c2ccc(Nc3nc(Cl)nc(Nc4cccc(S(=O)(=O)O)c4)n3)cc2S(=O)(=O)O)c(S(=O)(=O)O)cc2c(O)c(/N=N/c3ccc(Nc4nc(Cl)nc(Nc5cccc(S(=O)(=O)O)c5)n4)cc3S(=O)(=O)O)ccc12 [compound 14] | 1.1 ± 0.1 | 5.1 ± 0.3 |  |  |
| Cc1cc(-c2ccc(/N=N/c3ccc4c(S(=O)(=O)O)cc(S(=O)(=O)O)c(N)c4c3O)c(C)c2)ccc1/N=N/c1ccc2c(S(=O)(=O)O)cc(S(=O)(=O)O)c(N)c2c1O [compound 18] | 1.5 ± 0.6 |  |  |  |
| COc1cc(-c2ccc(/N=N/c3ccc4c(S(=O)(=O)O)cc(S(=O)(=O)O)c(N)c4c3O)c(OC)c2)ccc1/N=N/c1ccc2c(S(=O)(=O)O)cc(S(=O)(=O)O)c(N)c2c1O [compound 19] | 1.4 ± 0.4 | 13.9 ± 2.6 |  |  |
